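Each compound was tested at five concentrations against cells in 96-well plates for 48 hours. At the TGI there is no net growth.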
Assays:
Experiment in all cases: NCI anticancer screen, dose series, 48 h
[1] = tested on: M14 melanoma
[2] = tested on: LOX IMVI melanoma
[3] = tested on: SNB-19 CNS
[4] = tested on: HS 578T breast
[5] = tested on: HL-60(TB) leukemia
[6] = tested on: SK-MEL-28 melanoma
[7] = tested on: UACC-257 melanoma
[8] = tested on: MDA-MB-435
[9] = tested on: TK-10 renal
[10] = tested on: CCRF-CEM leukemia
[11] = tested on: MOLT-4 leukemia
[12] = tested on: 786-0 renal
[13] = tested on: MDA-MB-231 breast
[14] = tested on: HT29 colon
[15] = tested on: IGROV1 ovarian
[16] = tested on: OVCAR-3 ovarian
[17] = tested on: HCT-116 colon
[18] = tested on: UACC-62 melanoma
[19] = tested on: OVCAR-8 ovarian
[20] = tested on: COLO 205 colon
[21] = tested on: NCI-H226 lung
[22] = tested on: PC-3 prostate
[23] = tested on: OVCAR-5 ovarian
[24] = tested on: RXF 393 renal
[25] = tested on: ACHN renal
[26] = tested on: MDA-N
[27] = tested on: SN12C renal
[28] = tested on: EKVX NSCLC
[29] = tested on: SK-OV-3 ovarian
[30] = tested on: SF-539 CNS
[31] = tested on: HOP-62 NSCLC
[32] = tested on: KM12 colon
[33] = tested on: MCF7 breast
[34] = tested on: CAKI-1 renal
[35] = tested on: SK-MEL-2 melanoma
[36] = tested on: SF-268 CNS
[37] = tested on: HCC-2998 colon
[38] = tested on: SK-MEL-5 melanoma
[39] = tested on: U251 CNS
[40] = tested on: HCT-15 colon
[41] = tested on: SW-620 colon
[42] = tested on: A549 NSCLC
[43] = tested on: NCI-H23 lung
[44] = tested on: SF-295 CNS
[45] = tested on: NCI-H522 lung
[46] = tested on: NCI-H460 lung
[47] = tested on: NCI/ADR-RES ovarian
[48] = tested on: BT-549 breast
[49] = tested on: UO-31 renal
[50] = tested on: HOP-92 NSCLC
[51] = tested on: OVCAR-4 ovarian
[52] = tested on: DU-145 prostate
[53] = tested on: SNB-75 CNS
[54] = tested on: MALME-3M melanoma

Measured: TGI

COc1ccc(OC)c(/C=C2/C(=O)N=C(NC(C)=O)N2C)c1
> 100 µM: [1] | [2] | [3] | [4] | [5] | [6] | [7] | [8] | [9] | [10] | [11] | [12] | [13] | [14] | [15] | [16] | [17] | [18] | [19] | [20] | [21] | [22] | [23] | [24] | [25] | [26] | [27] | [28] | [29] | [30] | [31] | [32] | [33] | [34] | [35] | [36] | [37] | [38] | [39] | [40] | [41] | [42] | [43] | [44] | [45] | [46] | [47] | [48] | [49] | [50] | [51] | [52] | [53]

Cc1csc(=Nc2ccccc2)n1CCC(O)(P(=O)(O)O)P(=O)(O)O
> 100 µM: [1] | [2] | [3] | [4] | [7] | [9] | [12] | [13] | [14] | [15] | [16] | [17] | [18] | [19] | [20] | [21] | [22] | [23] | [24] | [25] | [26] | [28] | [29] | [30] | [31] | [32] | [33] | [34] | [36] | [37] | [38] | [40] | [42] | [43] | [44] | [45] | [46] | [47] | [48] | [54] | [49] | [52] | [53]

— PubChem BioAssay (NCI)
